How the values were obtained:
Type in all cases: biochemical
[1] = molecular target: T1, human SIRT5 (Homo sapiens, UniProt Q9NXA8); experiment: Fluorescence-based sirtuin subtype selectivity assay, SIRT5, single dose 50 μM; details: 50 μM compound; mean, n = 2
T1 construct: purchased Reaction Biology Corporation (Malvern, USA), contract assay
T1 sequence (Q9NXA8 37-310): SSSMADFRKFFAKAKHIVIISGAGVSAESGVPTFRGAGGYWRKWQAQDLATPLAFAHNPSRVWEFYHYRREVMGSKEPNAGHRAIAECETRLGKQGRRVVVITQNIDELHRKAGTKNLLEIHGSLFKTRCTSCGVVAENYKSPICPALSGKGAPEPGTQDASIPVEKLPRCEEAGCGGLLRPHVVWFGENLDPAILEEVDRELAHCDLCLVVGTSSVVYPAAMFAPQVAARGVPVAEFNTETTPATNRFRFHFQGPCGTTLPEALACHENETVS
Procedure: (§1) IC50 values against SIRT2 are given as mean with standard deviations (n = 3). Inhibition percentages at 50 μM for SIRT1, 3 and 5 are given as mean without standard deviations (n = 2)
(§2) The determination of subtype selectivity against SIRT1, 3 and 5 was performed by measuring the residual enzyme activity after treatment with the corresponding inhibitor at a fixed concentration of 50 μM and subsequent calculation of the percentage inhibition.
(§3) The determination of inhibitory activity on the corresponding sirtuin enzymes was carried out based on a fluorescence-based assay commissioned by Reaction Biology Corporation (Malvern, USA) following an internal experimental protocol. Test substances were prepared in DMSO, delivered into the respective enzyme mixture (prepared with reaction buffer: Tris-HCl, pH = 8) and incubated for 10 minutes at 30 °C. Subsequently the substrate mixture (NAD^+ and a 7-amino-4-methylcoumarin-based fluorogenic peptide substrate) was added to initiate the deacetylation reaction. After 2 hours incubation at 30 °C, 2 mM nicotinamide (universal sirtuin inhibitor, to stop the reaction) and protease-based developer (to generate fluorescence by the cleavage of 7-amino-4-methylcoumarin) was added. At 30 °C 1 hour later, the respective fluorescence was measured (extinction/emission = 360 nm/460 nm). The inhibitory effect of the test compounds is indirectly proportional to the amount of converted fluorescent substrate standardized as 100% activity of the control without inhibitor. The test substances were tested in 10-dose IC50 triplicate mode, with 3-fold serial dilution starting at 50 μM final reaction concentration and if necessary, starting at 100 μM. For each serially diluted replicate of the triplicate, an IC50 value was determined by sigmoidal curve fitting, resulting in three IC50 values, from which the mean and corresponding standard deviation were subsequently calculated. Data processing was performed based on Prism 8.0.2 software (GraphPad Software, Boston, USA). Subtype selectivity on SIRT1, SIRT3 and SIRT5 was evaluated in a single dose duplicate mode at 50 μM final test compound concentration according to previous outlined internal protocol of Reaction Biology Corporation by determining the enzyme activity of the respective sirtuins in % (no inhibitor control as 100% activity).

[2] = molecular target: T2, SIRT2 (Homo sapiens, UniProt Q8IXJ6); experiment: Fluorescence-based SIRT2 deacetylation inhibition assay (Reaction Biology Corporation); set-up: purchased Reaction Biology Corporation (Malvern, USA), contract assay; details: for IC50: fluorogenic peptide of p53 residues 379–382 (RHKK(Ac)-Fl), mean with standard deviation, n = 3
T2 sequence (Q8IXJ6 1-389): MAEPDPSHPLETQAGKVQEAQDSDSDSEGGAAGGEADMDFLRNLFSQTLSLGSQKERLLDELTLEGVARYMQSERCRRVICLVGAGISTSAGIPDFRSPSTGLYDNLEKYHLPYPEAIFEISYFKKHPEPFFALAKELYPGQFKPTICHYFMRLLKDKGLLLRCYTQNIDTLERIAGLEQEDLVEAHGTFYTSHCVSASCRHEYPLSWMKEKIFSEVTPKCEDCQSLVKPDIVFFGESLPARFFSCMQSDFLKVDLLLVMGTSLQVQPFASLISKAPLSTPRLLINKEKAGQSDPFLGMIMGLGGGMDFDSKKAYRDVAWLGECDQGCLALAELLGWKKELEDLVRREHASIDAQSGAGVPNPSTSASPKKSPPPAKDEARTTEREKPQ
Procedure: The determination of SIRT2 inhibitory activity was performed by Reaction Biology Corporation (Malvern, USA) with a fluorescence-based assay utilizing the fluorogenic peptide of p53 residues 379–382 (RHKK(Ac)-Fl). […]. […] […]. On the contrary, we observed a significant increase in potency by the introduction of halogens at the R^2 position (compounds 29–31), highlighting the importance of the position of the functional group modifications. […]. […] Additional factors such as the atomic radius and thus steric requirements of these halogens may also play a significant role in the increase in potency, where the smaller chlorine atom may experience less steric effects upon binding at the active site compared to the larger bromine and iodine atoms. […]. […] IC50 values against SIRT2 are given as mean with standard deviations (n = 3). Inhibition percentages at 50 μM for SIRT1, 3 and 5 are given as mean without standard deviations (n = 2)
as §3

[3] = molecular target: T3, human SIRT3 (Homo sapiens, UniProt Q9NTG7); experiment: Fluorescence-based sirtuin subtype selectivity assay, SIRT3, single dose 50 μM; details: 50 μM compound; mean, n = 2
T3 construct: purchased Reaction Biology Corporation (Malvern, USA), contract assay
T3 sequence (Q9NTG7 1-399): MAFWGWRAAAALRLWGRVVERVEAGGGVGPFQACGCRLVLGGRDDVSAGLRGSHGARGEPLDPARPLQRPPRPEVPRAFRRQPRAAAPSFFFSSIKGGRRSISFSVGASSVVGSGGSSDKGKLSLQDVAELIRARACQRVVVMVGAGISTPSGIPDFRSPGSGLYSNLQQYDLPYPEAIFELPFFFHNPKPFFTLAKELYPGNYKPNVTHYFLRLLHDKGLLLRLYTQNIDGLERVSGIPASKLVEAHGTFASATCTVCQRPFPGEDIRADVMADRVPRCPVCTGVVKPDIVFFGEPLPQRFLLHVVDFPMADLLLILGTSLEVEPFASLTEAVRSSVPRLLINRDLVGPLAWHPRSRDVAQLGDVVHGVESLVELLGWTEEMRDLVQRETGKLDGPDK
Procedure: as §1, §2, §3

[4] = molecular target: T4, human SIRT1 (Homo sapiens, UniProt Q96EB6); experiment: Fluorescence-based sirtuin subtype selectivity assay, SIRT1, single dose 50 μM; details: 50 μM compound; mean, n = 2
T4 construct: purchased Reaction Biology Corporation (Malvern, USA), contract assay
T4 sequence (Q96EB6 1-747): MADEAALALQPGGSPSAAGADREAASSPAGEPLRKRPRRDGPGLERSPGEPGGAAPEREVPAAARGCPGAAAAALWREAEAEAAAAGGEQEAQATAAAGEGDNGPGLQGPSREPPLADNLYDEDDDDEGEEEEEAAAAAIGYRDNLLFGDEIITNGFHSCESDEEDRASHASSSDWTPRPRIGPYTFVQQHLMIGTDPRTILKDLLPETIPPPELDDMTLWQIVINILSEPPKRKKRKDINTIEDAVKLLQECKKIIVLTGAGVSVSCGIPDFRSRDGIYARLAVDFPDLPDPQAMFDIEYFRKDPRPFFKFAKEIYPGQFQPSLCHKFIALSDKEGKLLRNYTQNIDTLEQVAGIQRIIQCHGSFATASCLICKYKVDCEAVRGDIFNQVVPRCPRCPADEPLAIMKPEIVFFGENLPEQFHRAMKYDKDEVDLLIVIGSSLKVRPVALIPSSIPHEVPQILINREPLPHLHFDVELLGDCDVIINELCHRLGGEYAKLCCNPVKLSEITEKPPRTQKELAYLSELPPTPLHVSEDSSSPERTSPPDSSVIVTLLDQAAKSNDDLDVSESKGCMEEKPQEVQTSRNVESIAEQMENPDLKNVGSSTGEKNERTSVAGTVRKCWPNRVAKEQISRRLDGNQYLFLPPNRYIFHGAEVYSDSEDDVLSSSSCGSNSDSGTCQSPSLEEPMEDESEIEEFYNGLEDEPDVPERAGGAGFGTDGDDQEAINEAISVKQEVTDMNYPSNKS
Procedure: as §1, §2, §3

inhibition at 50 µM [1] | IC50 [2] | inhibition at 50 µM [3] | inhibition at 50 µM [4] | Inhibition of SIRT1 in %@50 μM [4] | Fold increase in SIRT2 potency compared to lead structure ([2]; 29 vs 24a, 46 vs SirReal2) | SMILES
4% | 91 ± 7 nM | 31% | 23% |  |  | Cc1cc(C)nc(SCC(=O)Nc2cccc(COc3ccc(NC(=O)c4cnn(C)c4)c(C#N)c3)c2)n1 [Compound 34, N-(2-Cyano-4-((3-(2-((4,6-dimethylpyrimidin-2-yl)thio)acetamido)benzyl)oxy)phenyl)-1-methyl-1H-pyrazole-4-carboxamide]
14% | 202 ± 6 nM | 24% | 71% |  |  | Cc1cc(C)nc(SCC(=O)Nc2cccc(COc3ccc(NC(=O)c4cnn(C)c4)c(B(O)O)c3)c2)n1 [Compound 33, (5-((3-(2-((4,6-Dimethylpyrimidin-2-yl)thio)acetamido)benzyl)oxy)-2-(1-methyl-1H-pyrazole-4-carboxamido)phenyl)boronic acid]
6% | 184 ± 9 nM | 7% |  | n.i. |  | Cc1cc(C)nc(SCC(=O)Nc2cccc(COc3ccc(NC(=O)c4cnn(C)c4)c(C=O)c3)c2)n1 [Compound 32, N-(4-((3-(2-((4,6-Dimethylpyrimidin-2-yl)thio)acetamido)benzyl)oxy)-2-formylphenyl)-1-methyl-1H-pyrazole-4-carboxamide]
12% | 29 ± 2 nM | 22% | 5% |  |  | Cc1cc(C)nc(SCC(=O)Nc2cccc(COc3ccc(NC(=O)c4cnn(C)c4)c(I)c3)c2)n1 [Compound 31, N-(4-((3-(2-((4,6-Dimethylpyrimidin-2-yl)thio)acetamido)benzyl)oxy)-2-iodophenyl)-1-methyl-1H-pyrazole-4-carboxamide]
1% | 54 ± 7 nM | 43% | 4% |  |  | Cc1cc(C)nc(SCC(=O)Nc2cccc(COc3ccc(NC(=O)c4cnn(C)c4)c(Br)c3)c2)n1 [Compound 30, N-(2-Bromo-4-((3-(2-((4,6-dimethylpyrimidin-2-yl)thio)acetamido)benzyl)oxy)phenyl)-1-methyl-1H-pyrazole-4-carboxamide]

Continued, compound first:

SMILES | inhibition at 50 µM [1] | IC50 [2] | inhibition at 50 µM [3] | inhibition at 50 µM [4] | Inhibition of SIRT1 in %@50 μM [4] | Fold increase in SIRT2 potency compared to lead structure ([2]; 29 vs 24a, 46 vs SirReal2)
Cc1cc(C)nc(SCC(=O)Nc2cccc(COc3ccc(NC(=O)c4cnn(C)c4)cc3C=O)c2)n1 [Compound 12, N-(4-((3-(2-((4,6-Dimethylpyrimidin-2-yl)thio)acetamido)benzyl)oxy)-3-formylphenyl)-1-methyl-1H-pyrazole-4-carboxamide] | 16% | 147 ± 13 nM | 24% | 2% |  | 
Cc1cc(C)nc(SCC(=O)Nc2ncc(Cc3cccc4ccc(C=O)cc34)s2)n1 [Compound 49, 2-((4,6-Dimethylpyrimidin-2-yl)thio)-N-(5-((7-formylnaphthalen-1-yl)methyl)thiazol-2-yl)acetamide] | 21% | 356 ± 42 nM | 13% | 11% |  | 
Cc1cc(C)nc(SCC(=O)Nc2cccc(COc3ccc(NC(=O)c4cnn(C)c4)cc3Br)c2)n1 [Compound 11, N-(3-Bromo-4-((3-(2-((4,6-dimethylpyrimidin-2-yl)thio)acetamido)benzyl)oxy)phenyl)-1-methyl-1H-pyrazole-4-carboxamide] | 13% | 81 ± 10 nM | 24% |  | n.i. | 
Cc1cc(C)nc(SCC(=O)Nc2ncc(Cc3cccc4ccc(CC#N)cc34)s2)n1 [Compound 47, N-(5-((7-(Cyanomethyl)naphthalen-1-yl)methyl)thiazol-2-yl)-2-((4,6-dimethylpyrimidin-2-yl)thio)acetamide] | 2% | 235 ± 19 nM | 15% |  | n.i. | 
Cc1cc(C)nc(SCC(=O)Nc2ncc(Cc3cccc4ccc(C#N)cc34)s2)n1 [Compound 46, N-(5-((7-Cyanonaphthalen-1-yl)methyl)thiazol-2-yl)-2-((4,6-dimethylpyrimidin-2-yl)thio)acetamide] | 8% | 122 ± 8 nM | 9% | 6% |  | 2 fold
Cc1cc(C)nc(SCC(=O)Nc2ncc(Cc3cccc4ccc(B(O)O)cc34)s2)n1 [Compound 48, (8-((2-(2-((4,6-Dimethylpyrimidin-2-yl)thio)acetamido)thiazol-5-yl)methyl)naphthalen-2-yl)boronic acid] | 23% | 235 ± 36 nM | 12% | 19% |  | 
Cc1cc(C)nc(SCC(=O)Nc2cccc(COc3ccc(NC(=O)c4cnn(C)c4)cc3C#N)c2)n1 [Compound 14, N-(3-Cyano-4-((3-(2-((4,6-dimethylpyrimidin-2-yl)thio)acetamido)benzyl)oxy)phenyl)-1-methyl-1H-pyrazole-4-carboxamide] | 2% | 125 ± 18 nM | 35% | 6% |  | 

From publication PMC12412615, “Tailored SirReal-type inhibitors enhance SIRT2 inhibition through ligand stabilization and disruption of NAD^+ co-factor binding” (RSC Medicinal Chemistry, 2025)
